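Growth conditions: 96-well plates. Treatment: test compound, 48 hours, 5 concentrations. Analysis: linear interpolation between bracketing concentrations; unreached endpoints set to highest concentration. TGI is the concentration that stops growth completely.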
Key:
Assay in all cases: NCI tumour cell line growth inhibition, 48 h
786-0 renal = system: 786-0 renal
DU-145 prostate = system: DU-145 prostate
HCT-116 colon = system: HCT-116 colon
HCT-15 colon = system: HCT-15 colon
K-562 leukemia = system: K-562 leukemia
MDA-N = system: MDA-N
MOLT-4 leukemia = system: MOLT-4 leukemia
NCI-H460 lung = system: NCI-H460 lung
NCI-H522 lung = system: NCI-H522 lung
OVCAR-3 ovarian = system: OVCAR-3 ovarian
PC-3 prostate = system: PC-3 prostate
RPMI-8226 leukemia = system: RPMI-8226 leukemia
RXF 393 renal = system: RXF 393 renal
SF-295 CNS = system: SF-295 CNS
SF-539 CNS = system: SF-539 CNS
SK-MEL-28 melanoma = system: SK-MEL-28 melanoma
SK-MEL-5 melanoma = system: SK-MEL-5 melanoma
SK-OV-3 ovarian = system: SK-OV-3 ovarian
U251 CNS = system: U251 CNS
SR leukemia = system: SR leukemia

| Compound | TGI (786-0 renal) [µM] | TGI (DU-145 prostate) [µM] | TGI (HCT-116 colon) [µM] | TGI (HCT-15 colon) [µM] | TGI (K-562 leukemia) [µM] | TGI (MDA-N) [µM] | TGI (MOLT-4 leukemia) [µM] | TGI (NCI-H460 lung) [µM] | TGI (NCI-H522 lung) [µM] | TGI (OVCAR-3 ovarian) [µM] | TGI (PC-3 prostate) [µM] | TGI (RPMI-8226 leukemia) [µM] | TGI (RXF 393 renal) [µM] | TGI (SF-295 CNS) [µM] | TGI (SF-539 CNS) [µM] | TGI (SK-MEL-28 melanoma) [µM] | TGI (SK-MEL-5 melanoma) [µM] | TGI (SK-OV-3 ovarian) [µM] | TGI (U251 CNS) [µM] | TGI (SR leukemia) [µM] |
| --- | --- | --- | --- | --- | --- | --- | --- | --- | --- | --- | --- | --- | --- | --- | --- | --- | --- | --- | --- | --- |
| COc1cc(O)c2c(=O)c3c(C)cccc3n(C)c2c1 | > 10 | > 10 | > 10 | > 10 | > 10 | > 10 | > 10 | > 10 | > 10 | > 10 | > 10 | > 10 | > 10 | > 10 | > 10 | > 10 | > 10 | > 10 | > 10 |  |
| O=[N+]([O-])c1ccc(C(Nc2ccccc2)P(c2ccccc2)c2ccccc2)cc1 (configuration not stated) | > 100 | > 100 | > 100 | > 100 | > 100 | > 100 | > 100 | > 100 | > 100 |  | > 100 |  | > 100 | > 100 | > 100 | > 100 | > 100 | > 100 | > 100 | > 100 |
| Cc1cn(CCCCCCC2=NCCCN2)c(=O)[nH]c1=O | > 100 | > 100 | > 100 | > 100 | > 100 | > 100 | > 100 | > 100 | > 100 | > 100 | > 100 | > 100 | > 100 | > 100 | > 100 | > 100 | > 100 | > 100 | > 100 |  |
| COC1CC(OC2C(C)OC(OC3C(C)OC(OC4C(O)CC(O[C@H]5CC[C@@]6(C)C(=CC[C@]7(O)[C@@H]6C[C@@H](OC(C)=O)[C@@]6(C)[C@]7(O)CC[C@@]6(O)C(C)=O)C5)OC4C)CC3OC)CC2OC)OC(C)C1O (some centres not stated) | > 12.5 | > 12.5 | > 12.5 | > 12.5 | > 12.5 | > 12.5 | > 12.5 |  | > 12.5 | > 12.5 | > 12.5 | > 12.5 |  | > 12.5 | > 12.5 |  | > 12.5 | > 12.5 | > 12.5 | > 12.5 |
| CSCCCS/C1=C/CCCCCCCCCC1 | > 100 | > 100 | > 100 | > 100 | > 100 | > 100 | > 100 | > 100 |  | > 100 | > 100 | > 100 | > 100 | > 100 | > 100 | > 100 | > 100 | > 100 | > 100 | > 100 |
| C(=Nc1ccc(-c2nc3ccccc3[nH]2)cc1)c1ccc[nH]1 | > 100 | > 100 | > 100 | > 100 | > 100 | > 100 | > 100 |  | > 100 | > 100 | > 100 | > 100 | > 100 |  | > 100 | > 100 | > 100 |  |  | > 100 |
| Brc1ccc2c3c1[C@H]1O[C@H]1c1cccc(c1-3)[C@@H]1O[C@H]21 | 34.6 | 25.6 | 37.8 | 49.1 | > 100 | 35.4 | > 100 |  | 27.6 |  | 33.4 |  |  | 29.3 |  | 36.5 | 30.2 | 35.1 | 37.1 | > 100 |
| CCOC(=O)c1cc(I)c(-c2cc(C)no2)n1C | > 100 | > 100 | > 100 | > 100 | > 100 | > 100 | 71.6 | > 100 | > 100 | > 100 | > 100 | > 100 | 42.8 | > 100 | > 100 | > 100 | > 100 | > 100 | > 100 |  |
| O=c1sc2c(s1)-c1sc(=O)sc1SS2 | > 100 | > 89.8 | > 100 | > 31.6 | > 100 | > 100 | > 100 | > 100 | > 100 | > 100 | > 100 | > 100 | > 100 | > 100 | 99.1 | > 100 | > 100 | > 100 | > 31.6 |  |
| CN(CCO)CCCC1COc2ccccc2O1 (configuration not stated) | > 100 | > 100 | > 100 | > 100 | > 100 | > 100 | > 100 | > 100 | > 100 | > 100 | > 100 |  | > 100 | > 100 | > 100 | > 100 | > 100 | > 100 | > 100 | > 100 |
| CCCC(O)c1cn(C(NC(=O)c2ccccc2)P(=O)(OCC)OCC)nn1 (configuration not stated) | > 100 | > 100 | > 100 | > 100 | > 100 | > 100 | > 100 | > 100 | > 100 | > 100 | > 100 | > 100 | > 100 | > 100 | > 100 | > 100 | > 100 |  | > 100 | > 100 |
| CCOP(=O)(OCC)C(c1ccccc1)N(C(=O)NC(F)(F)F)c1cccc(F)c1 (configuration not stated) | > 100 | > 100 | > 100 | > 100 | > 100 | > 100 | > 100 | > 100 | > 100 | > 100 | > 100 | > 100 | > 100 | > 100 | > 100 | > 100 | > 100 |  | > 100 | > 100 |
| CCOC(=O)c1c(-c2ccc(Cl)cc2)c(C#N)c(=S)n(C2OC(COC(C)=O)C(OC(C)=O)C(OC(C)=O)C2OC(C)=O)c1-c1ccccc1 (configuration not stated) | > 100 | > 100 | > 100 | > 100 | > 100 | > 100 | > 100 | > 100 |  | > 100 | > 100 | > 100 | > 100 | > 100 | > 100 | > 100 | > 100 | > 100 | > 100 | > 100 |
